Results as given in patent US20220251163A1 (Sinopep-Allsino Biopharmaceutical Co., Ltd., priority 2019, published 2022).
*1 amine or outer side, *2 acyl side, *3 side chain or, on linkers, in order; H or OH if unused. Where a SMILES comes first, the peptide text is derived from it. Side-chain parts run from the residue outwards. [ ]: non-standard residue; d: D form. The star is where a group is joined. C18 diacid = O=C(O)CCCCCCCCCCCCCCCCC(=O)*; γGlu = O=C(O)[C@H](CCC(=O)[*:2])N[*:1]; AEEA = NCCOCCOCC(=O)O; Aib = CC(C)(N)C(=O)O

Experiments:
mGLP-1R = target: T1, mGLP-1R (Mus musculus, UniProt O35659); experiment: GLP-1R agonist activity, cAMP in transfected HEK293 cells; assay type: cell-based
T1 construct: expressed in transfected cells; host or cells: HEK293
T1 sequence (O35659 22-463): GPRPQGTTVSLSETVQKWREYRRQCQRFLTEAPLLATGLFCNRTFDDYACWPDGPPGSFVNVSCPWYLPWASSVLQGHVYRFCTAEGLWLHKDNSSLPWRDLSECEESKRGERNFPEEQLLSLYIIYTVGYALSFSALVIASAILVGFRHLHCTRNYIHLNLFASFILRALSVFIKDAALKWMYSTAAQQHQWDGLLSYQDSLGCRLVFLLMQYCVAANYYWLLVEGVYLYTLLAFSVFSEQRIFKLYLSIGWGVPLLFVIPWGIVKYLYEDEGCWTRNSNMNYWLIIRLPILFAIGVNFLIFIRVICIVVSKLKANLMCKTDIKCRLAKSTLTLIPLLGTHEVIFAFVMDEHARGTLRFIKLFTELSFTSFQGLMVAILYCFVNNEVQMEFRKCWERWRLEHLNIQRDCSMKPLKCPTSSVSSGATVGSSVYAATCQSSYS

mGIPR = target: T2, mGIPR (Mus musculus, UniProt Q0P543); experiment: GIPR agonist activity, cAMP in transfected HEK293 cells; assay type: cell-based
T2 construct: expressed in transfected cells; host or cells: HEK293
T2 sequence (Q0P543 19-460): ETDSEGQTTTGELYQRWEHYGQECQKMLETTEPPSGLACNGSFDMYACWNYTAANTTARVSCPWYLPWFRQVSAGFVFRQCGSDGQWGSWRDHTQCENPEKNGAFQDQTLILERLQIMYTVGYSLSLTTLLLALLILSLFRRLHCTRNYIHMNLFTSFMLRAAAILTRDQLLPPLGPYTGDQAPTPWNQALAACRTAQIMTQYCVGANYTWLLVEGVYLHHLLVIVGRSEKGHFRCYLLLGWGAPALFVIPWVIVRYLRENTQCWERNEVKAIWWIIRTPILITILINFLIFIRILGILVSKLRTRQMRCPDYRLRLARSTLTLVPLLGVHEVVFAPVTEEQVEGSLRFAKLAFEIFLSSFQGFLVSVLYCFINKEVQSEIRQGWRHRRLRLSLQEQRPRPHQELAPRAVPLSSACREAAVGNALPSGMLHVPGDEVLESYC
Method: HEK293 cells were co-transfected with cDNA encoding GLP-1R or GIPR. In a test for determining the compound, the cells were inoculated in a 96-well plate 2 h in advance, the polypeptide compound was dissolved with DMSO, and diluted to different multiples with a culture medium containing 0.1% bovine serum albumin and added to the co-transfected cells.

ob/ob mice = experiment: Blood glucose reducing experiment, single subcutaneous injection in ob/ob mice; assay type: in vivo; conditions: 100 μg/kg single s.c.; for Blood glucose at different time after administration, 0 h: 0 h (before administration); for Blood glucose at different time after administration, 0 h / Blood glucose at different time after administration, 2 h / Blood glucose at different time after administration, 4 h / Blood glucose at different time after administration, 6 h / Blood glucose at different time after administration, 10 h / Blood glucose at different time after administration, 24 h / Blood glucose at different time after administration, 34 h / AUC0-24 h Glu: X ± s, n = 7; for AUC0-24 h Glu: blood glucose curve area within 24 h; for AUC0-24 h Glu Decrease rate: versus model control group;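 as to all read-outs here: random blood glucose read at each time point, decrease rate given as percentage fall versus the model control group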
Method: The mice in each group received random blood glucose value measurement before (0 h) administration and 2, 4, 6, 10 and 24 h after administration, and then the time for measuring the random blood glucose was adjusted and prolonged to 34, 48, 58 or 72 h after administration according to the blood glucose condition of the mice in each group. Meanwhile, the random weight of the mice in each group before (0 h) administration and 24 h after administration was weighed, and then the random weight of the mice corresponding to the random blood glucose measurement condition 48 or 72 h after administration was weighed. The blood glucose decrease rate, the blood glucose curve area (AUC0-24 h Glu) within 24 h after administration and the decrease rate were calculated according to the following formula.
Blood glucose decrease rate=(blood glucose in the model control group−blood glucose in the administration group)/blood glucose in the model control group×100%
BG0, BG2, BG4, BG6, BG10 and BG24 represented the blood glucose values before administration (0 h) and 2, 4, 6, 10 and 24 h after administration respectively.
AUC0-24 h Glu(mmol/Lh·r) decrease rate=(model control group AUC0-24 h Glu−administration group AUC0-24 h Glu/model control group AUC0-24 h Glu×100%
Experiments were carried out twice, at an interval of 8-10 days.

[1] = Effect on random weight of ob/ob mice after single subcutaneous injection; assay type: in vivo; conditions: 100 μg/kg single s.c., X ± s, n = 7
Method: The mice in each group received random blood glucose value measurement before (0 h) administration and 2, 4, 6, 10 and 24 h after administration, and then the time for measuring the random blood glucose was adjusted and prolonged to 34, 48, 58 or 72 h after administration according to the blood glucose condition of the mice in each group. Meanwhile, the random weight of the mice in each group before (0 h) administration and 24 h after administration was weighed, and then the random weight of the mice corresponding to the random blood glucose measurement condition 48 or 72 h after administration was weighed.

SMILES | EC50 (mGLP-1R) | EC50 (mGIPR) | Blood glucose at different time after administration, 0 h (ob/ob mice) | Decrease rate of blood glucose at different time after administration, 2 h (ob/ob mice) | Blood glucose at different time after administration, 2 h (ob/ob mice) | Decrease rate of blood glucose at different time after administration, 4 h (ob/ob mice) | Blood glucose at different time after administration, 4 h (ob/ob mice) | Decrease rate of blood glucose at different time after administration, 6 h (ob/ob mice) | Blood glucose at different time after administration, 6 h (ob/ob mice) | Decrease rate of blood glucose at different time after administration, 10 h (ob/ob mice) | Blood glucose at different time after administration, 10 h (ob/ob mice) | Decrease rate of blood glucose at different time after administration, 24 h (ob/ob mice) | Blood glucose at different time after administration, 24 h (ob/ob mice) | Decrease rate of blood glucose at different time after administration, 34 h (ob/ob mice) | Blood glucose at different time after administration, 34 h (ob/ob mice) | Decrease rate of blood glucose at different time after administration, 48 h (ob/ob mice) | AUC0-24 h Glu (ob/ob mice) | AUC0-24 h Glu Decrease rate (ob/ob mice) | Changes of random body weight at different time after administration, 0 h [1] | Random body weight at different time after administration, 0 h [1] | other results
CC[C@H](C)[C@H](NC(=O)[C@H](CCCCN)NC(=O)[C@H](CC(=O)O)NC(=O)[C@H](CC(C)C)NC(=O)[C@H](C)NC(=O)[C@@H](NC(=O)[C@H](CO)NC(=O)[C@H](Cc1ccc(O)cc1)NC(=O)[C@H](CC(=O)O)NC(=O)[C@H](CO)NC(=O)[C@@H](NC(=O)[C@H](Cc1ccccc1)NC(=O)[C@@H](NC(=O)CNC(=O)[C@H](CCC(=O)O)NC(=O)[C@H](C)NC(=O)[C@@H](N)Cc1ccc(O)cc1)[C@@H](C)O)[C@@H](C)O)[C@@H](C)CC)C(=O)N[C@@H](C)C(=O)N[C@@H](CCC(N)=O)C(=O)N[C@@H](CCCCNC(=O)COCCOCCNC(=O)COCCOCCNC(=O)CC[C@H](NC(=O)CCCCCCCCCCCCCCCCC(=O)O)C(=O)O)C(=O)N[C@@H](C)C(=O)N[C@@H](Cc1ccccc1)C(=O)N[C@H](C(=O)N[C@@H](CCC(N)=O)C(=O)N[C@@H](Cc1c[nH]c2ccccc12)C(=O)N[C@@H](CC(C)C)C(=O)N[C@H](C(=O)N[C@@H](C)C(=O)NCC(=O)NCC(=O)N1CCC[C@H]1C(=O)N[C@@H](CO)C(=O)N[C@@H](CO)C(=O)NCC(=O)N[C@@H](C)C(=O)N1CCC[C@H]1C(=O)N1CCC[C@H]1C(=O)N1CCC[C@H]1C(=O)N[C@@H](CO)C(N)=O)[C@@H](C)CC)C(C)C [ID NO: 4] | 1.49 pM | 5.21 pM | 20.43 ± 0.68 mmol/L | 50.0% | 10.21 ± 1.06 mmol/L | 51.6% | 9.89 ± 0.83 mmol/L | 52.9% | 9.63 ± 0.95 mmol/L | 51.7% | 9.86 ± 0.96 mmol/L | 46.1% | 11.01 ± 0.83 mmol/L | 28.7% | 14.56 ± 1.42 mmol/L | 15.2% | 255.33 ± 20.13 mmol·h/L | 50.0% | 0.0 ± 0.0 g | 43.6 ± 1.0 g | Changes of random body weight at different time after administration, 24 h [1]: -1.4 ± 0.2 g; Random body weight at different time after administration, 24 h [1]: 42.2 ± 1.0 g; Changes of random body weight at different time after administration, 48 h [1]: -0.6 ± 0.1 g; Random body weight at different time after administration, 48 h [1]: 42.9 ± 1.1 g
CC[C@H](C)[C@H](NC(=O)[C@H](CCCCN)NC(=O)[C@H](CC(=O)O)NC(=O)[C@H](CC(C)C)NC(=O)[C@H](C)NC(=O)[C@@H](NC(=O)[C@H](CO)NC(=O)[C@H](Cc1ccc(O)cc1)NC(=O)[C@H](CC(=O)O)NC(=O)[C@H](CO)NC(=O)[C@@H](NC(=O)[C@H](Cc1ccccc1)NC(=O)[C@@H](NC(=O)CNC(=O)[C@H](CCC(=O)O)NC(=O)C(C)(C)NC(=O)[C@@H](N)Cc1ccc(O)cc1)[C@@H](C)O)[C@@H](C)O)[C@@H](C)CC)C(=O)N[C@@H](C)C(=O)N[C@@H](CCC(N)=O)C(=O)N[C@@H](CCCCNC(=O)COCCOCCNC(=O)COCCOCCNC(=O)CC[C@H](NC(=O)CCCCCCCCCCCCCCCCC(=O)O)C(=O)O)C(=O)N[C@@H](C)C(=O)N[C@@H](Cc1ccccc1)C(=O)N[C@H](C(=O)N[C@@H](CCC(N)=O)C(=O)N[C@@H](Cc1c[nH]c2ccccc12)C(=O)N[C@@H](CC(C)C)C(=O)N[C@H](C(=O)N[C@@H](C)C(=O)NCC(=O)NCC(=O)N1CCC[C@H]1C(=O)N[C@@H](CO)C(=O)N[C@@H](CO)C(=O)NCC(=O)N[C@@H](C)C(=O)N1CCC[C@H]1C(=O)N1CCC[C@H]1C(=O)N1CCC[C@H]1C(=O)N[C@@H](CO)C(N)=O)[C@@H](C)CC)C(C)C [ID NO: 6] (H-Y[Aib]EGTFTSDYSIALDKIAQK([AEEA-AEEA-γGlu-C18 diacid])AFVQWLIAGGPSSGAPPPS-NH2) | 2.58 pM | 9.29 pM | 20.64 ± 0.77 mmol/L | 52.7% | 9.76 ± 0.83 mmol/L | 56.6% | 8.96 ± 0.77 mmol/L | 58.6% | 8.55 ± 0.96 mmol/L | 51.9% | 9.93 ± 0.76 mmol/L | 49.0% | 10.53 ± 1.21 mmol/L | 36.4% | 13.13 ± 2.21 mmol/L | 13.8% | 246.81 ± 18.95 mmol·h/L | 51.7% | 0.0 ± 0.0 g | 43.5 ± 0.6 g | Changes of random body weight at different time after administration, 24 h [1]: -1.5 ± 0.2 g; Random body weight at different time after administration, 24 h [1]: 42.1 ± 0.7 g; Changes of random body weight at different time after administration, 48 h [1]: -0.8 ± 0.1 g; Random body weight at different time after administration, 48 h [1]: 42.7 ± 0.7 g
